Test results published in ChEMBL document CHEMBL1201862, “PubChem BioAssay data set” (2004).
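Briefly, cells in 96-well plates were exposed to five compound concentrations for 48 h, and endpoints were estimated by linear interpolation. Here, GI50 denotes the concentration required for 50% inhibition of growth.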 Active and inactive are the calls of the source. No stated cut-off is given here; in the data, active = GI50 up to about 1.1 µM and inactive = higher.

Columns and labels:
Experiment in all cases: NCI-60 cell line screen, 48 h
[1] = tested on: K562
[2] = tested on: HOP-92
[3] = tested on: 786-0
[4] = tested on: NCI-H460
[5] = tested on: SK-MEL-28
[6] = tested on: SNB-19
[7] = tested on: MOLT-4
[8] = tested on: SNB-75
[9] = tested on: Malme-3M
[10] = tested on: EKVX
[11] = tested on: MDA-N
[12] = tested on: OVCAR-8
[13] = tested on: MDA-MB-231
[14] = tested on: T47D
[15] = tested on: U-251
[16] = tested on: UO-31
[17] = tested on: Hs-578T
[18] = tested on: NCI/ADR-RES
[19] = tested on: SF-268
[20] = tested on: SK-MEL-5
[21] = tested on: SK-OV-3
[22] = tested on: BT-549
[23] = tested on: A549
[24] = tested on: OVCAR-5
[25] = tested on: DU-145
[26] = tested on: RPMI-8226
[27] = tested on: HOP-62
[28] = tested on: NCI-H23
[29] = tested on: HT-29
[30] = tested on: CAKI-1
[31] = tested on: HCT-116
[32] = tested on: TK-10
[33] = tested on: ACHN
[34] = tested on: A498
[35] = tested on: SF-295
[36] = tested on: HCT-15
[37] = tested on: PC-3
[38] = tested on: UACC-257
[39] = tested on: NCI-H522
[40] = tested on: M14
[41] = tested on: MDA-MB-435
[42] = tested on: COLO 205
[43] = tested on: KM12
[44] = tested on: OVCAR-3
[45] = tested on: SK-MEL-2
[46] = tested on: IGROV-1
[47] = tested on: RXF 393
[48] = tested on: MCF7
[49] = tested on: OVCAR-4
[50] = tested on: HCC 2998
[51] = tested on: SW-620
[52] = tested on: UACC-62
[53] = tested on: SF-539
[54] = tested on: LOX IMVI
[55] = tested on: HL-60
[56] = tested on: NCI-H226
[57] = tested on: CCRF-CEM
[58] = tested on: SN12C

N#CC(Cc1ccccc1)N(CCC1=CCCCC1)Cc1ccccc1 (centres undefined)
GI50 [1]: 54.1 µM (inactive) | GI50 [2]: 35.1 µM (inactive) | GI50 [3]: > 100 µM (inactive) | GI50 [4]: 62.2 µM (inactive) | GI50 [5]: 68.4 µM (inactive) | GI50 [6]: > 100 µM (inactive) | GI50 [7]: 22.3 µM (inactive) | GI50 [8]: 61 µM (inactive) | GI50 [9]: 40.8 µM (inactive) | GI50 [10]: 56.5 µM (inactive) | GI50 [11]: 32.4 µM (inactive) | GI50 [12]: 72.1 µM (inactive) | GI50 [13]: > 100 µM (inactive) | GI50 [14]: 47.3 µM (inactive) | GI50 [15]: 81.7 µM (inactive) | GI50 [16]: > 100 µM (inactive) | GI50 [17]: > 100 µM (inactive) | GI50 [18]: 59.6 µM (inactive) | GI50 [19]: > 100 µM (inactive) | GI50 [20]: 22.3 µM (inactive) | GI50 [21]: > 100 µM (inactive) | GI50 [22]: 71.9 µM (inactive) | GI50 [23]: 54.7 µM (inactive) | GI50 [24]: 97.7 µM (inactive) | GI50 [25]: > 100 µM (inactive) | GI50 [26]: 17.9 µM (inactive) | GI50 [27]: > 100 µM (inactive) | GI50 [28]: 56.8 µM (inactive) | GI50 [29]: 32.2 µM (inactive) | GI50 [30]: > 100 µM (inactive) | GI50 [31]: 36.8 µM (inactive) | GI50 [32]: > 100 µM (inactive) | GI50 [33]: > 100 µM (inactive) | GI50 [34]: > 100 µM (inactive) | GI50 [35]: 61.5 µM (inactive) | GI50 [36]: 42.9 µM | GI50 [37]: 51.1 µM (inactive) | GI50 [38]: 43.8 µM (inactive) | GI50 [39]: 25.3 µM (inactive) | GI50 [40]: 44.6 µM (inactive) | GI50 [41]: 22 µM (inactive) | GI50 [42]: 23.4 µM (inactive) | GI50 [43]: 43.1 µM (inactive) | GI50 [44]: 81.7 µM (inactive) | GI50 [45]: 57.8 µM (inactive) | GI50 [46]: 81.1 µM (inactive) | GI50 [47]: 46.1 µM (inactive) | GI50 [48]: 31.2 µM (inactive) | GI50 [49]: 83.9 µM (inactive) | GI50 [50]: 28.4 µM (inactive) | GI50 [51]: 41.1 µM (inactive) | GI50 [52]: 81.3 µM (inactive)

O=C(CCc1ccccc1)ON1C(=S)NC(c2ccccc2)(c2ccccc2)C1=S
GI50 [1]: 14.6 µM (inactive) | GI50 [53]: 26.4 µM (inactive) | GI50 [2]: 65 µM (inactive) | GI50 [3]: 19.7 µM (inactive) | GI50 [4]: 31.6 µM (inactive) | GI50 [5]: > 100 µM (inactive) | GI50 [6]: 64.4 µM (inactive) | GI50 [54]: 21.1 µM (inactive) | GI50 [55]: 21.6 µM (inactive) | GI50 [7]: 32.3 µM (inactive) | GI50 [8]: 33 µM (inactive) | GI50 [9]: 20.8 µM (inactive) | GI50 [10]: 25.4 µM (inactive) | GI50 [11]: 38.1 µM (inactive) | GI50 [12]: 31.2 µM (inactive) | GI50 [13]: 51.3 µM (inactive) | GI50 [14]: 41.6 µM (inactive) | GI50 [15]: 39.4 µM (inactive) | GI50 [16]: 43.4 µM (inactive) | GI50 [17]: 31.1 µM (inactive) | GI50 [18]: 28.5 µM (inactive) | GI50 [19]: 28.2 µM (inactive) | GI50 [20]: 19.5 µM (inactive) | GI50 [21]: 35.6 µM (inactive) | GI50 [22]: 37.8 µM (inactive) | GI50 [23]: 37.5 µM (inactive) | GI50 [24]: 61.4 µM (inactive) | GI50 [56]: 22 µM (inactive) | GI50 [25]: 68.1 µM (inactive) | GI50 [26]: 29.1 µM (inactive) | GI50 [27]: 30.1 µM (inactive) | GI50 [28]: 30.3 µM (inactive) | GI50 [29]: 25.4 µM (inactive) | GI50 [30]: 33.7 µM (inactive) | GI50 [57]: 21.9 µM (inactive) | GI50 [58]: 44.8 µM (inactive) | GI50 [31]: 23.7 µM (inactive) | GI50 [32]: 54.5 µM (inactive) | GI50 [33]: 44.9 µM (inactive) | GI50 [34]: > 100 µM (inactive) | GI50 [35]: 42 µM (inactive) | GI50 [36]: 28.4 µM | GI50 [37]: 23.4 µM (inactive) | GI50 [38]: 36.5 µM (inactive) | GI50 [40]: 42.1 µM (inactive) | GI50 [41]: 36.9 µM (inactive) | GI50 [42]: 40.2 µM (inactive) | GI50 [43]: 27.4 µM (inactive) | GI50 [44]: 29 µM (inactive) | GI50 [45]: 20.2 µM (inactive) | GI50 [46]: 25.9 µM (inactive) | GI50 [47]: 36 µM (inactive) | GI50 [48]: 32.9 µM (inactive) | GI50 [49]: 33.7 µM (inactive) | GI50 [50]: 29.4 µM (inactive) | GI50 [51]: 42.4 µM (inactive) | GI50 [52]: 33.9 µM (inactive)
